Laboratory results taken from patent publication US10813933B2, “Therapeutic agent for lung cancer that has acquired EGFR-TKI resistance” (JAPANESE FOUNDATION FOR CANCER RESEARCH, priority 2016, dated 2020).
Where “and” joins values, the source holds several entries; their conditions need not be identical. Identical values can stand only once. Like-named read-outs stand apart in the source and are kept apart here.

Tests used:
[1] = system: EGFR signal transductions in EGFR mutants expressing Ba/F3 cells; assay: Western blotting of EGFR signal transductions in EGFR mutants expressing Ba/F3 cells (summary statements); format: cell-based, mouse; conditions: FIG. 8A-D; L858R-based lines, not shown
[2] = system: phosphorylation of EGFR and downstream signal transductions in triple-mutant expressing PC9 cell line; assay: Western blotting of EGFR signal, PC9 triple-mutant; format: cell-based, human; conditions: FIG. 10C, 10D
[3] = system: phosphorylation of EGFR and downstream signal transductions in parental line PC9; assay: Western blotting of EGFR signal, PC9; format: cell-based, human; conditions: FIG. 10A, 10D
[4] = system: EGFR mutant expressing Ba/F3 cells; assay: Cell viability, ALK inhibitors on Ba/F3 with any of the EGFR mutants (summary statements); format: cell-based, mouse; conditions: FIG. 6A-D, FIG. 7A-D
[5] = target: EGFR exon 19 deletion mutant (del19) expressing Ba/F3 cells (Homo sapiens, UniProt P00533, DEL746-750, cells depend on it); assay: CellTiter-Glo cell viability, Ba/F3 EGFR mutant
[6] = target: EGFR T790M/exon 19 deletion mutant (T790M/del19) expressing Ba/F3 cells (Homo sapiens, UniProt P00533, DEL746-750/T790M, cells depend on it); assay: CellTiter-Glo cell viability, Ba/F3 EGFR mutant
[7] = system: phosphorylation of EGFR and downstream signal transductions in T790M/exon 19 deletion mutant expressing PC9 cell line; assay: Western blotting of EGFR signal, PC9 T790M; format: cell-based, human; conditions: FIG. 10B, 10D
[8] = target: EGFR L858R mutant expressing Ba/F3 cells (Homo sapiens, UniProt P00533, L858R, cells depend on it); assay: CellTiter-Glo cell viability, Ba/F3 EGFR mutant; format: cell-based, mouse; conditions: read-out: IC50 (nM) L858R
Method: (§1) Ba/F3 mutation lines were prepared in the same manner as above to determine the cell viabilities by CellTiter-Glo assay.

[9] = target: EGFR T790M/L858R mutant expressing Ba/F3 cells (Homo sapiens, UniProt P00533, T790M/L858R, cells depend on it); assay: CellTiter-Glo cell viability, Ba/F3 EGFR mutant; format: cell-based, mouse; conditions: Table 5, ALK inhibitors, read-out: IC50 (nM) T/L
Method: as §1

[10] = system: exon 19 deletion mutation; conditions: cited from earlier work
adenocarcinoma = conditions: cited from earlier work
[11] = system: human lung cancer cell line PC9 (EGFR exon 19 deletion mutant); format: cell-based
[12] = system: phosphorylation of EGFR and downstream signal transductions in T790M/L858R mutant expressing Ba/F3 cells; assay: Western blotting of EGFR phosphorylation and downstream signal; format: cell-based, mouse; conditions: FIG. 4B
[13] = system: T790M/exon 19 deletion mutant expressing PC9 cell line; format: cell-based, human
[14] = system: phosphorylation of EGFR and downstream signal transductions in T790M/del19 Ba/F3 cells; assay: Western blotting of EGFR phosphorylation and downstream signal; format: cell-based, mouse; conditions: 10, 100, 1000 nM; FIG. 2E
[15] = system: Ba/F3 cells expressing the T790M/del19 mutant; assay: SCID mice transplanted with EGFR mutant expressing Ba/F3; conditions: 50 mg/kg osimertinib, 75 mg/kg brigatinib, oral once daily; FIG. 12B
[16] = system: A431 wherein EGFR is amplified; assay: Cell growth of wild type EGFR expressing cells; format: cell-based, human; conditions: FIG. 11
Method: The analysis was carried out using A431 wherein EGFR is amplified and A549 and H460 which have a mutation at K-ras. A431 is a cell line derived from a human epithelioid cell cancer and A549 and H460 are cell lines derived from human lung cancers. Note that, EGFR has no mutations despite A431 being amplified, and EGFR also has no mutations in A549 and H460.

[17] = system: EGFR T790M/exon19 deletion mutant expressing PC9 cells; assay: Balb-c nu/nu mice transplanted with EGFR mutant expressing PC9; format: in vivo, mouse
Method: The tumor volume was measured in the same manner as above.
The results are shown from 2 mice per group.

[18] = system: phosphorylation of EGFR and downstream signal transductions in L858R mutant expressing Ba/F3 cells; assay: Western blotting of EGFR phosphorylation and downstream signal; format: cell-based, mouse; conditions: FIG. 4A
[19] = read-out: IC50 (nM) Del19, Table 4, ALK inhibitors
[20] = read-out: IC50 (nM) T/D, Table 4, ALK inhibitors, T790M/del19

EGFR T790M/L858R mutant expressing Ba/F3 cells, sequence (P00533 whole entry T790M/L858R): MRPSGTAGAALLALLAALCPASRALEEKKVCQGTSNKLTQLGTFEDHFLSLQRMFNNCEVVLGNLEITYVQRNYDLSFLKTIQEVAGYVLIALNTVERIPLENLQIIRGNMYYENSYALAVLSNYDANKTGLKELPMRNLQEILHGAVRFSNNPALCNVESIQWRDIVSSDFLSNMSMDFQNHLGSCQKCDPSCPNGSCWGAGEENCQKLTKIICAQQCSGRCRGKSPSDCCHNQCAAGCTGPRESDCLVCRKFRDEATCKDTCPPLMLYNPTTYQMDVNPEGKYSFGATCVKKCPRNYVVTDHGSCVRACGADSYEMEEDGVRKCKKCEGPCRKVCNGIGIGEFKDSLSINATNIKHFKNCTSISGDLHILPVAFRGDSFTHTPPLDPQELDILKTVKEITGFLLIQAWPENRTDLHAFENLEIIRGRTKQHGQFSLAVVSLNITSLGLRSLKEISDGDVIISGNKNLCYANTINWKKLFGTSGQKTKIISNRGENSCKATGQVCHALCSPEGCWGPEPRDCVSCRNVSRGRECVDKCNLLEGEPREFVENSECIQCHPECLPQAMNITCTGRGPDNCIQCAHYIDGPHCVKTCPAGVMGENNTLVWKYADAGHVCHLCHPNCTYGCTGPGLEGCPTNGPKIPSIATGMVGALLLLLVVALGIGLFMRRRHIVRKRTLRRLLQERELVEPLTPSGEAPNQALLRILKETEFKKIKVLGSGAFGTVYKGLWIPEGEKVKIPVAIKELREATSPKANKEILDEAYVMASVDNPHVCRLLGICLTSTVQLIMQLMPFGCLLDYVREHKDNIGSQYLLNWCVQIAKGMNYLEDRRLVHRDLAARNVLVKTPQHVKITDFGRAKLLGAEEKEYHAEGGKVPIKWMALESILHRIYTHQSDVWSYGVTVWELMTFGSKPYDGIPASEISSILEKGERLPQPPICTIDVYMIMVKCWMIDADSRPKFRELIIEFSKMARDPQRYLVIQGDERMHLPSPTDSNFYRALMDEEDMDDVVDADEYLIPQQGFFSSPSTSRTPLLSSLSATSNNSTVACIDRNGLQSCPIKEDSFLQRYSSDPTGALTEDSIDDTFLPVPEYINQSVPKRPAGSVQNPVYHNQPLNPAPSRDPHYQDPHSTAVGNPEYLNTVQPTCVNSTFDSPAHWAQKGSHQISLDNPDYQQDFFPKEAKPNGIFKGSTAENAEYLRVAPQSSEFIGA
EGFR T790M/exon 19 deletion mutant (T790M/del19) expressing Ba/F3 cells, sequence (P00533 with tags, fused parts or gaps DEL746-750/T790M): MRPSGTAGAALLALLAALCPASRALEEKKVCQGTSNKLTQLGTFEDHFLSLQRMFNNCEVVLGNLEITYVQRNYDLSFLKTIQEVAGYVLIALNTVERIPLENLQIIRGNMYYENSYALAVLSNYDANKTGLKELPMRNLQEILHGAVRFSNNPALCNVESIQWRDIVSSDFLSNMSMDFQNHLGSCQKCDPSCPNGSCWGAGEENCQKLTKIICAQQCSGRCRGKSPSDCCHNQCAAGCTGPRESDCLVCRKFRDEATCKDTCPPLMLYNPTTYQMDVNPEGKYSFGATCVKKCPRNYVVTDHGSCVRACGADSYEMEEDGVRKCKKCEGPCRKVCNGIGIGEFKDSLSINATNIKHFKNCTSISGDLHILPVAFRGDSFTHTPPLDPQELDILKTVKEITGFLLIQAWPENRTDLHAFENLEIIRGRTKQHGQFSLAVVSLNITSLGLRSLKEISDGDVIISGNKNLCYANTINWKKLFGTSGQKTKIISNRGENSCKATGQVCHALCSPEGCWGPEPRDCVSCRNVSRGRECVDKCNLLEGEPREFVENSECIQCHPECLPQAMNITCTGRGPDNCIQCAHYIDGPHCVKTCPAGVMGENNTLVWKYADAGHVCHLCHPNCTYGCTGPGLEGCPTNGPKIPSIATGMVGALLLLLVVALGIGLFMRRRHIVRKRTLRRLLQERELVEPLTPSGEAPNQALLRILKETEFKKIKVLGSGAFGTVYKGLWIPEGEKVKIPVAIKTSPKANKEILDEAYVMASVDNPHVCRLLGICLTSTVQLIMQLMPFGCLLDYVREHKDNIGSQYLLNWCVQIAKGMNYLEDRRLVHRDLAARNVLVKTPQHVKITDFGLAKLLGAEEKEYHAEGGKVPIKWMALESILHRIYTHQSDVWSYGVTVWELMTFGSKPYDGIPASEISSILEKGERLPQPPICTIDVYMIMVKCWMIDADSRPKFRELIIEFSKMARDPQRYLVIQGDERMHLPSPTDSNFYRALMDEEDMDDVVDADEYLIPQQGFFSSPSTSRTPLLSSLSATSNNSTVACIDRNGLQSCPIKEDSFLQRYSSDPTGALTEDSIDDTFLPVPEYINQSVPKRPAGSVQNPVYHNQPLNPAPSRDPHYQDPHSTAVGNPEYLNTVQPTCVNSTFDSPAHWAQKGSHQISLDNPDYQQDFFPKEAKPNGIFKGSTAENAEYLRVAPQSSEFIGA
EGFR exon 19 deletion mutant (del19) expressing Ba/F3 cells, sequence (P00533 with tags, fused parts or gaps DEL746-750): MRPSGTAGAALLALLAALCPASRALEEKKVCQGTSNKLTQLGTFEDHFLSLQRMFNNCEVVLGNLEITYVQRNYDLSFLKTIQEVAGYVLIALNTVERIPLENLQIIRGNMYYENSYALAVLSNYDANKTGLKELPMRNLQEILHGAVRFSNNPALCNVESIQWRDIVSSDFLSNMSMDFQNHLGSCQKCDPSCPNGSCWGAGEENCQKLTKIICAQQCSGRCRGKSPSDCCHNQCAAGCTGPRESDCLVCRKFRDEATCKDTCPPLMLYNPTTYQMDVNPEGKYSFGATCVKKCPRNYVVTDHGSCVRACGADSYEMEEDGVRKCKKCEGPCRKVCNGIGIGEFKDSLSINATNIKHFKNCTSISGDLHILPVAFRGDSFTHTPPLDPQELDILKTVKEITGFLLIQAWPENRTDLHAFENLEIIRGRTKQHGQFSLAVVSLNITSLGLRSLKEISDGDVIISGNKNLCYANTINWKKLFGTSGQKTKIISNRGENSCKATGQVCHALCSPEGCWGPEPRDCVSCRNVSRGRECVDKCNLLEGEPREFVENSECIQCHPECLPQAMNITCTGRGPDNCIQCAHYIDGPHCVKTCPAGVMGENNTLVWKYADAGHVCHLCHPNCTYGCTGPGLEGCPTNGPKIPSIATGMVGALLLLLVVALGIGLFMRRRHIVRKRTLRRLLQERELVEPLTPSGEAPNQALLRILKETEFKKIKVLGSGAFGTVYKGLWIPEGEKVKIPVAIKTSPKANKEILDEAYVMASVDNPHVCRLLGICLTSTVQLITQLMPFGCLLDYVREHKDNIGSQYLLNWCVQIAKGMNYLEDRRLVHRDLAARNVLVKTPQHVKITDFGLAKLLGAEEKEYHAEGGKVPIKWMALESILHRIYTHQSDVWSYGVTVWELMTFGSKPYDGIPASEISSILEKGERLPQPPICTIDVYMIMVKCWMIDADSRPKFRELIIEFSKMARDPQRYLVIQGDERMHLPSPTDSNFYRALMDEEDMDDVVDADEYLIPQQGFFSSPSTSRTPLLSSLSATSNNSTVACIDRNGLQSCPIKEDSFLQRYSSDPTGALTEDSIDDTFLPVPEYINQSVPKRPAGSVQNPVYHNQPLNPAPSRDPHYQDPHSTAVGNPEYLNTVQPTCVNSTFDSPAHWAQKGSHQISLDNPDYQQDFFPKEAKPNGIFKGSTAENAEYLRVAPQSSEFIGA
EGFR L858R mutant expressing Ba/F3 cells, sequence (P00533 whole entry L858R): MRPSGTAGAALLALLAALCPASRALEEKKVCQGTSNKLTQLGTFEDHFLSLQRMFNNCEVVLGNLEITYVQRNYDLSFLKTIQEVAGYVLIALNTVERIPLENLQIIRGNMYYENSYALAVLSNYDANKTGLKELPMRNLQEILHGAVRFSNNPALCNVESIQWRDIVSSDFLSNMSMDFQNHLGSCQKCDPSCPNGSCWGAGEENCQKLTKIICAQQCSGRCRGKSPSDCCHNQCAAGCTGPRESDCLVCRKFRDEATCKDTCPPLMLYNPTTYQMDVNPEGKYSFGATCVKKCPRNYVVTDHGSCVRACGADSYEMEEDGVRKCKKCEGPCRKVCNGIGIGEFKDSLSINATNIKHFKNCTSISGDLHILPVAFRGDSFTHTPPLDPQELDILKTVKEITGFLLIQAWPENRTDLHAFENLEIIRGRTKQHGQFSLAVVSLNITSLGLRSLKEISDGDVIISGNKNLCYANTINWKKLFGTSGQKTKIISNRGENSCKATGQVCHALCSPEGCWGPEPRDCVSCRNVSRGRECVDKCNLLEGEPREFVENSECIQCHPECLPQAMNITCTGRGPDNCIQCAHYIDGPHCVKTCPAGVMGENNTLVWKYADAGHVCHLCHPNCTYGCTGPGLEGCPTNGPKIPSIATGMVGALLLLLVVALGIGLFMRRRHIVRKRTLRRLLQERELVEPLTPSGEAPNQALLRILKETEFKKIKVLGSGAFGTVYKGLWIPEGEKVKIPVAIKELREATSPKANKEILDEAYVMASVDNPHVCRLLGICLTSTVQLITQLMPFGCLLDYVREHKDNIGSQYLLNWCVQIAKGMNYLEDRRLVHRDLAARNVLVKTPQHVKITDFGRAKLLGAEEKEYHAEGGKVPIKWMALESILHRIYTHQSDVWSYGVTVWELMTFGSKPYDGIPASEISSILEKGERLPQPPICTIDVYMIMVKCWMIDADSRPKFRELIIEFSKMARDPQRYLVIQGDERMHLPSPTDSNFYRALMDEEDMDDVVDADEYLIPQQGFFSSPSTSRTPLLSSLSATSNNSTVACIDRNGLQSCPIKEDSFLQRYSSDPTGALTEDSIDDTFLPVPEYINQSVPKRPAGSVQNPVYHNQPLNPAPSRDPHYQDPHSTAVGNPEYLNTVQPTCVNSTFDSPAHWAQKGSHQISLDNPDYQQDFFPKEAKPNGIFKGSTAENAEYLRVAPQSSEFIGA

Row | Structure (SMILES) | inhibitory activity against the EGFR signal transductions (in words) [1] | suppression of phosphorylation of EGFR and downstream signal (in words) [2] | suppression of phosphorylation of EGFR and downstream signal (in words) [3] | cell growth suppression effect on Ba/F3 with EGFR mutant having any of the mutations (in words) [4] | GI50 [5, 19] [nM] | GI50 [6, 20] [nM] | suppression of phosphorylation of EGFR and downstream signal (in words) [7] | GI50 ([8]; Table 5, ALK inhibitors) [nM] | GI50 [9] [nM] | further results
1 | COc1cc(N2CCC(N(C)C)CC2)ccc1Nc1ncc(Cl)c(Nc2ccccc2P(C)(C)=O)n1 [AP26113-analogue, AP26113-analog] | demonstrated the inhibitory activity against the EGFR signal transductions | demonstrated the suppression effects on the phosphorylation of EGFR | the effect was weaker compared to afatinib | strong cell growth suppression effects | 36.9 | 139 | equal suppression effect to brigatinib | 92.1 | 36 | 
2 | COc1cc(N2CCC(N3CCN(C)CC3)CC2)ccc1Nc1ncnc(Nc2ccccc2S(=O)(=O)C(C)C)n1 [ASP3026] | did not substantially demonstrate the inhibitory effect on the EGFR signal transductions even when treated at a high concentration of 1 μM |  |  | did not substantially demonstrate the cell growth suppression effect | 450 | 2170 |  | 948 | 1690 | 
3 | COc1cc(N2CCC(N)CC2)ccc1Nc1ncc(Cl)c(-c2c[nH]c3ccccc23)n1 [AZD3463] |  | had the effect of suppressing the phosphorylation of the EGFR signal transductions | confirmed to have the effect of suppressing the phosphorylation of EGFR | strong cell growth suppression effects | 90 | 175 | confirmed to have the effect of suppressing the phosphorylation of EGFR | 287 | 184 | 
4 | O=C(Nc1nccs1)C(c1cc(F)ccc1O)N1Cc2ccccc2C1=O (centres unmarked) [EAI045] |  |  |  |  |  |  |  |  |  | effectiveness on the exon 19 deletion mutation (in words) [10]: not effective on the exon 19 deletion mutation
5 | COc1cc(N2CCC(N3CCN(C)CC3)CC2)ccc1Nc1ncc(Cl)c(Nc2ccccc2S(=O)(=O)C(C)C)n1 [TAE684] | did not substantially demonstrate the inhibitory effect on the EGFR signal transductions even when treated at a high concentration of 1 μM |  |  | did not substantially demonstrate the cell growth suppression effect |  |  |  |  |  | 
6 | COc1cc(N2CCC(N3CCN(C)CC3)CC2)ccc1Nc1ncc(Cl)c(Nc2ccccc2P(C)(C)=O)n1 [brigatinib] |  |  |  |  |  |  |  |  |  | GI50 ([5]; read-out: IC50 (nM) Del19, egfr exon 19 deletion mutant (del19) expressing ba/f3 cells): 43.7 nM; GI50 ([5]; read-out: IC50 (nM) del19, egfr exon 19 deletion mutant (del19) expressing ba/f3 cells): 43.7 nM; GI50 ([6]; read-out: IC50 (nM) T790M/del19, egfr t790m/exon 19 deletion mutant (t790m/del19) expressing ba/f3 cells): 150 nM; GI50 ([6]; read-out: IC50 (nM) T/D, egfr t790m/exon 19 deletion mutant (t790m/del19) expressing ba/f3 cells): 150 nM; GI50 ([8]; egfr l858r mutant expressing ba/f3 cells): 207 nM and 133 nM
7 | Cc1cc(Nc2ncc(Cl)c(Nc3ccccc3S(=O)(=O)C(C)C)n2)c(OC(C)C)cc1C1CCNCC1 [ceritinib] | did not substantially demonstrate the inhibitory effect on the EGFR signal transductions even when treated at a high concentration of 1 μM |  |  | did not substantially demonstrate the cell growth suppression effect | 524 |  |  | 1160 | 685 | 
8 | COc1cc2ncnc(Nc3ccc(F)c(Cl)c3)c2cc1OCCCN1CCOCC1 [gefitinib] |  |  |  |  |  |  |  |  |  | PFS (progression-free survival) (adenocarcinoma; EGFR gene mutation-positive group): 9.5 months; PFS (progression-free survival) (adenocarcinoma; mutation negative group): 1.5 months
9 | C=CC(=O)Nc1cc(Nc2nccc(-c3cn(C)c4ccccc34)n2)c(OC)cc1N(C)CCN(C)C [osimertinib] |  | neither of afatinib, osimertinib, or gefitinib demonstrated the suppression effect | also very strongly suppressed the phosphorylation |  |  |  | demonstrated the effects of suppressing the phosphorylation |  |  | cell growth suppression effect (in words) [11]: demonstrated the cell growth suppression effects; suppression of phosphorylation of EGFR and downstream signal (in words) [12]: strongest suppression effect; cell growth suppression effect (in words) [13]: extremely strong cell growth suppression effect; suppression of phosphorylation of EGFR and downstream signal (in words) [14]: strongly suppressed the phosphorylation of EGFR; tumor growth suppression effect (tumor volume, in words) [15]: had the effect; cell growth suppression (in words) [16]: suppress the cell growth; effect on the tumor growth (tumor volume, in words) ([17]; 50 mg/kg osimertinib, 75 mg/kg brigatinib, oral once daily, FIG. 13A): notable effect on the tumor growth; survival (Kaplan-Meier, in words) ([17]; FIG. 13B): alive during the observation period; suppression of phosphorylation of EGFR and downstream signal (in words) [18]: suppression effect, despite being weaker than afatinib
